From patent publication US12692238B2, “Substituted pyridazinone herbicides” (FMC CORPORATION, priority 2020, dated 2026)

What was measured:
Type in all cases: in vivo
[1] = system: kochia (Bassia scoparia); assay: Test A preemergence, kochia; settings: Bassia scoparia, pre-emergence, 240 h, 0 to 100 scale, 10 days, read-out: Plant response rating, Kochia; for pest or weed control at 31 g/ha: 31 g ai/ha; for pest or weed control at 125 g/ha: 125 g ai/ha
Method in brief: (§1)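 Scores reflect visual injury versus untreated controls after 10 days in a greenhouse, on a scale from 0 (none) to 100 (complete control); pre- and postemergence sprays used loam/sand pots, postemergence at the one- to two-leaf stage.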

[2] = system: foxtail, green (green foxtail, Setaria viridis); assay: Test A preemergence, foxtail, green; settings: 0 to 100 scale, 10 days
From the text: (§2) Seeds of plant species selected from barnyardgrass (Echinochloa crus-galli), blackgrass (Alopecurus myosuroides), corn (Zea mays), foxtail, giant (giant foxtail, Setaria faberi), foxtail, green (green foxtail, Setaria viridis), goosegrass (Eleusine indica), kochia (Bassia scoparia), oat, wild (wild oat, Avena fatua), palmer amaranth (pigweed, palmer, Amaranthus palmeri), redroot pigweed (Amaranthus retroflexus), ragweed (common ragweed, Ambrosia artemisiifolia), ryegrass, Italian (Italian ryegrass, Lolium multiflorum), and soybean (Glycine max) were planted into a blend of loam soil and sand and treated preemergence with a directed soil spray using test chemicals formulated in a non-phytotoxic solvent mixture which included a surfactant.
(§3) At the same time, plants selected from these crop and weed species and also wheat (Triticum aestivum), galium (catchweed bedstraw, Galium aparine) and horseweed (Erigeron canadensis) were planted in pots containing the same blend of loam soil and sand and treated with postemergence applications of test chemicals formulated in the same manner. Plants ranged in height from 2 to 10 cm and were in the one- to two-leaf stage for the postemergence treatment. Treated plants and untreated controls were maintained in a greenhouse for 10 days, after which time all treated plants were compared to untreated controls and visually evaluated for injury. Plant response ratings, summarized in Table A, are based on a 0 to 100 scale where 0 is no effect and 100 is complete control. A dash (-) response means no test result.

[3] = system: foxtail, green (green foxtail, Setaria viridis); assay: Test A postemergence, foxtail, green; settings: 10 days
From the text: as §2, §3

[4] = system: redroot pigweed (Amaranthus retroflexus); assay: Test A preemergence, redroot pigweed; settings: 0 to 100 scale, 10 days
Method in brief: as §1

[5] = system: foxtail, giant (giant foxtail, Setaria faberi); assay: Test A preemergence, foxtail, giant; settings: Setaria faberi, pre-emergence, 240 h, 0 to 100 scale, 10 days, read-out: Plant response rating, Foxtail, Giant; for pest or weed control at 31 g/ha: 31 g ai/ha; for pest or weed control at 125 g/ha: 125 g ai/ha
Method in brief: as §1

[6] = system: foxtail, giant (giant foxtail, Setaria faberi); assay: Test A postemergence, foxtail, giant; settings: Setaria faberi, post-emergence, 240 h, Postemergence, 0 to 100 scale, 10 days, read-out: Plant response rating, Foxtail, Giant; for pest or weed control at 31 g/ha: 31 g ai/ha; for pest or weed control at 125 g/ha: 125 g ai/ha
Method in brief: as §1

| Structure (SMILES) | pest or weed control at 31 g/ha [1] [%] | pest or weed control at 125 g/ha [1] [%] | Plant response rating, Foxtail, Green ([2]; 31 g ai/ha) | Plant response rating, Foxtail, Green ([2]; 125 g ai/ha) | Plant response rating, Foxtail, Green ([3]; 31 g ai/ha, postemergence, 0 to 100 scale (0 no effect, 100 complete control)) | Plant response rating, Foxtail, Green ([3]; Postemergence, 125 g ai/ha, 0 to 100 scale) | Plant response rating, Pigweed, Redroot ([4]; 31 g ai/ha) | Plant response rating, Pigweed, Redroot ([4]; 125 g ai/ha) | pest or weed control at 31 g/ha [5] [%] | pest or weed control at 125 g/ha [5] [%] | pest or weed control at 31 g/ha [6] [%] | pest or weed control at 125 g/ha [6] [%] |
| --- | --- | --- | --- | --- | --- | --- | --- | --- | --- | --- | --- | --- |
| CC(=O)OCOc1c(Cl)nn(C)c(=O)c1-c1c(C)sc2cccc(Cl)c12 [Compound 1, 5-[(acetyloxy)methoxy]-6-chloro-4-(4-chloro-2-methylbenzo[b]thien-3-yl)-2-methyl-3(2H)-pyridazinone] | 0 | 10 | 0 | 10 | 0 | 10 | 80 | 90 |  |  |  |  |
| CC(=O)OCOc1c(Cl)nn(C)c(=O)c1-c1c2ccccc2c(Cl)c2ccccc12 [Compound 11, 5-[(acetyloxy)methoxy]-6-chloro-4-(10-chloro-9-anthracenyl)-2-methyl-3(2H)-pyridazinone] | 0 | 10 |  |  |  |  | 100 | 100 | 10 | 60 | 30 | 80 |
| CC(=O)OCOc1c(Cl)nn(C)c(=O)c1-c1c2ccccc2cc2ccccc12 [Compound 10, 5-[(acetyloxy)methoxy]-4-(9-anthracenyl)-6-chloro-2-methyl-3(2H)-pyridazinone] | 0 | 0 |  |  |  |  | 100 | 100 | 0 | 20 | 10 | 50 |
| CC(=O)OCOc1c(C)nn(C)c(=O)c1-c1c(Br)sc2ccc(F)cc12 [Compound 2, 5-[(acetyloxy)methoxy]-4-(2-bromo-5-fluorobenzo[b]thien-3-yl)-2,6-dimethyl-3(2H)-pyridazinone] | 20 | 50 |  |  |  |  | 90 | 100 | 30 | 60 | 50 | 90 |
